Assays:
[1] = test system: PC3M cell line that stably expresses GFP-PTB to mark PNCs; assay: High content assay for PNC detection (reduction of PNC prevalence); assay type: cell-based, human; conditions: Table 4, PC3M GFP-PTB cells, 16 hrs incubation; for IC50: Homo sapiens, PC-3M
Description: The quantitative output for this assay is the reduction of PNC prevalence. The PNC can be detected in living cells by the expression of a green fluorescent protein (GFP) tagged to the PNC localized protein, PTB. A PC3M cell line was used that stably expresses GFP-PTB to mark PNCs. This method eliminates the need for immunofluorescent staining.
The IN Cell Analyzer 1000 automated fluorescent imaging system (GE Healthcare, Piscataway, N.J.) was used for automated image acquisition. […] The instrument acquired images of each well in a 1536-well plate with a laser-based autofocus system. To score PNC prevalence in a high-content throughput, the Multi-Target Analysis (MTA) algorithm (GE Healthcare, Investigator v3.5) to identify individual cells and granules (PNCs) within these cells was used. The nucleus was segmented via a region growing method (50 μm^2 minimum area) with light shading and noise removal to allow “touching” nuclei to be separated. Granules in the nucleus (PNCs) were segmented using a multiscale top hat method, which measures granules of 1 to 2 μm in size and used a smart masking method to identify the boundaries of each segmented granule. The algorithm was optimized and validated using positive and negative controls (50 μM camptothecin and DMSO, respectively). In particular, the MTA algorithm allows for the identification of multiple subcellular compartments and organelles (or granules) within those compartments. In this instance, the algorithm's capability to identify objects within the same color channel that only differ in size or fluorescent intensity was utilized. Also, the algorithm allows for building complex hierarchical classification systems, using output measures within the algorithm to filter and define subpopulations. For this particular assay, PNC-positive cells were scored when 1 to 3 PNC granules were detected per nucleus. Cells that contained 0 granules were scored as PNC negative, and cells with >3 granules were assumed to be false positives (very few cells have more than 3 PNCs in one focus plane), and were also scored as PNC negative.

[2] = test system: PC3M reporter cell line stably expressing the PTB-GFP; assay: ATP quantitation assay (ATPLite); assay type: cell-based, human; conditions: Homo sapiens, PC-3M, Table 4, PC3M cells, 24 hrs incubation
Procedure: This follow-up assay was conducted to measure the effect of compounds on cell health by measuring ATP levels (ATPLite™). ATPLite™ is an ATP monitoring system based on firefly (Photinus pyralis) luciferase. The level of ATP in a metabolically active cell is a general marker for its viability. ATP levels are often reduced during necrosis or apoptosis. In this assay, the luciferase enzyme catalyzes the conversion of the added substrate D-luciferin to oxyluciferin and light with ATP. Thus, the emitted light is proportional to the ATP concentration. For this assay, the highly metastatic PC3M reporter cell line stably expressing the PTB-GFP was provided by Professor Sui Huang of Northwestern University. The media and cell culture reagents were purchased from Invitrogen (Carlsbad, Calif.), ATPLite™ came from PerkinElmer.

| IC50 [1] | IC50 [2] | PNC IC50(μM) [1] | Compound |
| --- | --- | --- | --- |
| 2.96 µM | 24.1 µM |  | CCOC(CCCn1cnc2c(c(-c3ccccc3)c(-c3ccccc3)n2Cc2ccccc2)c1=N)OCC [Compound 31] |
| 18.7 µM | 24.1 µM |  | CCOC(CCCn1cnc2c(c(-c3ccccc3)c(-c3ccccc3)n2CCc2ccccc2)c1=N)OCC [Compound 32] |
| 2.96 µM | 48.2 µM |  | CCOC(CCCn1cnc2c(c(-c3ccccc3)c(-c3ccccc3)n2Cc2ccc(OC)cc2)c1=N)OCC [Compound 33] |
| 1.25 µM | 20.4 µM |  | CCCCn1cnc2c(c(-c3ccccc3)c(-c3ccccc3)n2Cc2ccco2)c1=N [Compound 34] |
|  | 19.9 µM | Inactive | CC(C)CCn1cnc2c(c(-c3ccccc3)c(-c3ccccc3)n2Cc2ccco2)c1=N [Compound 35] |
| 1.99 µM | 25.7 µM |  | N=c1c2c(-c3ccccc3)c(-c3ccccc3)n(Cc3ccccc3)c2ncn1CCCn1ccnc1 [Compound 36] |
| 0.935 µM | 96.1 µM |  | N=c1c2c(-c3ccccc3)c(-c3ccccc3)n(Cc3ccccc3)c2ncn1CC1CCCO1 (stereo not shown) [Compound 38] |
| 4.69 µM | 48.2 µM |  | N=c1c2c(-c3ccccc3)c(-c3ccccc3)n(CCc3ccccc3)c2ncn1CC1CCCO1 (stereo not shown) [Compound 39] |
| 5.9 µM | 38.3 µM |  | COc1ccc(Cn2c(-c3ccccc3)c(-c3ccccc3)c3c(=N)n(CC4CCCO4)cnc32)cc1 (stereo not shown) [Compound 40] |
| 9.96 µM | 20.4 µM |  | N=c1c2c(-c3ccccc3)c(-c3ccccc3)n(Cc3ccco3)c2ncn1Cc1ccco1 [Compound 43] |
| 15.8 µM | 19.9 µM |  | N=c1c2c(-c3ccccc3)c(-c3ccccc3)n(Cc3ccccc3)c2ncn1Cc1ccccc1 [Compound 44] |
| 9.35 µM | 24.1 µM |  | N=c1c2c(-c3ccccc3)c(-c3ccccc3)n(Cc3ccccc3)c2ncn1Cc1ccc2c(c1)OCO2 [Compound 45] |
| 14.8 µM | 24.1 µM |  | COc1ccc(CCn2cnc3c(c(-c4ccccc4)c(-c4ccccc4)n3Cc3ccccc3)c2=N)cc1OC [Compound 46] |
| 4.69 µM | 30.4 µM |  | N=c1c2c(-c3ccccc3)c(-c3ccccc3)n(CCc3ccccc3)c2ncn1[C@H](CO)Cc1ccccc1 [Compound 48] |
|  | 32.4 µM | inactive | N=c1c2c(-c3ccccc3)c(-c3ccccc3)n(Cc3ccco3)c2ncn1CCN1CCOCC1 [Compound 50] |
| 29.6 µM | 24.1 µM |  | COC(=O)c1cccc(Cn2cnc3c(c(-c4ccccc4)c(-c4ccccc4)n3CCc3ccccc3)c2=N)c1 [Compound 53] |
| 0.009 µM | 19.2 µM |  | CO[C@H]1CC[C@H](n2cnc3c(c(-c4ccccc4)c(-c4ccccc4)n3Cc3ccccc3)c2=N)CC1 [Compound 56] |
| 0.059 µM | 96.1 µM |  | N=c1c2c(-c3ccccc3)c(-c3ccccc3)n(Cc3ccc(S(N)(=O)=O)cc3)c2ncn1C1CCOCC1 [Compound 57] |
| 0.118 µM | 24.1 µM |  | COc1ccc(Cn2c(-c3ccccc3)c(-c3ccccc3)c3c(=N)n([C@H]4CC[C@H](O)CC4)cnc32)cc1 [Compound 58] |
| 0.118 µM | 24.1 µM |  | COc1ccc(Cn2c(-c3ccccc3)c(-c3ccccc3)c3c(=N)n(C4CCOCC4)cnc32)cc1 [Compound 59] |
| 0.118 µM | 24.1 µM |  | N=c1c2c(-c3ccccc3)c(-c3ccccc3)n(CC3CCCCC3)c2ncn1C1CCOCC1 [Compound 60] |
| 0.118 µM | 24.1 µM |  | N=c1c2c(-c3ccccc3)c(-c3ccccc3)n(Cc3ccccc3)c2ncn1CCC1CCC(O)CC1 (stereo not shown) [Compound 61] |
| 0.148 µM | 24.1 µM |  | N=c1c2c(-c3ccccc3)c(-c3ccccc3)n(CCc3ccccc3)c2ncn1C[C@H]1CCCC[C@@H]1O [Compound 62] |
| 0.148 µM | 19.2 µM |  | N=c1c2c(-c3ccccc3)c(-c3ccccc3)n(Cc3ccccc3)c2ncn1C1CCCC[C@H]1O (stereo partly shown) [Compound 63] |
| 0.187 µM | 38.3 µM |  | N=c1c2c(-c3ccccc3)c(-c3ccccc3)n(CC3CC3)c2ncn1C1CCOCC1 [Compound 64] |

| IC50 [1] | IC50 [2] | PNC IC50(μM) [1] | Compound |
| --- | --- | --- | --- |
| 0.235 µM | 19.2 µM |  | CO[C@H]1CC[C@H](n2cnc3c(c(-c4ccccc4)c(-c4ccccc4)n3CCc3ccccc3)c2=N)CC1 [Compound 65] |
| 0.296 µM | 76.4 µM |  | N=c1c2c(-c3ccccc3)c(-c3ccccc3)n(Cc3ccccc3)c2ncn1C1CCCC[C@H]1CO (stereo partly shown) [Compound 66] |
| 0.296 µM | 24.1 µM |  | N=c1c2c(-c3ccccc3)c(-c3ccccc3)n(CCc3ccccc3)c2ncn1CCC1CCC(O)CC1 (stereo not shown) [Compound 67] |
| 0.296 µM | 38.3 µM |  | N=c1c2c(-c3ccccc3)c(-c3ccccc3)n(CCc3ccccc3)c2ncn1C1CCCC[C@H]1O (stereo partly shown) [Compound 68] |
| 0.372 µM | 19.2 µM |  | CO[C@H]1CC[C@H](n2cnc3c(c(-c4ccccc4)c(-c4ccccc4)n3Cc3ccc(OC(F)(F)F)cc3)c2=N)CC1 [Compound 69] |
| 0.372 µM | 24.1 µM |  | N=c1c2c(-c3ccccc3)c(-c3ccccc3)n(Cc3ccc(OC(F)(F)F)cc3)c2ncn1[C@H]1CC[C@H](O)CC1 [Compound 70] |
| 0.372 µM | 121 µM |  | N=c1c2c(-c3ccccc3)c(-c3ccccc3)n(CCc3ccccc3)c2ncn1C1CCOCC1 [Compound 71] |
| 0.469 µM | 24.1 µM |  | N=c1c2c(-c3ccccc3)c(-c3ccccc3)n(Cc3ccccc3)c2ncn1CCNc1ccncc1 [Compound 72] |
| 0.59 µM | 24.1 µM |  | N=c1c2c(-c3ccccc3)c(-c3ccccc3)n(Cc3ccccc3)c2ncn1C[C@@H]1CCCC[C@H]1O [Compound 73] |
| 0.743 µM | 24.1 µM |  | N=c1c2c(-c3ccccc3)c(-c3ccccc3)n(Cc3ccc(OC(F)(F)F)cc3)c2ncn1CCCO [Compound 74] |
| 0.935 µM | 24.1 µM |  | N=c1c2c(-c3ccccc3)c(-c3ccccc3)n(Cc3ccc(OC(F)(F)F)cc3)c2ncn1C1CCOCC1 [Compound 75] |
| 0.935 µM | 48.2 µM |  | COc1ccc(Cn2c(-c3ccccc3)c(-c3ccccc3)c3c(=N)n(CC4CCOCC4)cnc32)cc1 [Compound 76] |
| 1.18 µM | 96.1 µM |  | COc1ccc(Cn2c(-c3ccccc3)c(-c3ccccc3)c3c(=N)n(CCCO)cnc32)cc1 [Compound 77] |
| 1.48 µM | 30.4 µM |  | N=c1c2c(-c3ccccc3)c(-c3ccccc3)n(CC3CCCCC3)c2ncn1[C@H]1CC[C@H](O)CC1 [Compound 78] |
| 1.87 µM | 383 µM |  | N=c1c2c(-c3ccccc3)c(-c3ccccc3)n(Cc3ccc(S(N)(=O)=O)cc3)c2ncn1CC1CCOCC1 [Compound 79] |
| 1.87 µM | 21.5 µM |  | N=c1c2c(-c3ccccc3)c(-c3ccccc3)n(CC3CCCCC3)c2ncn1C1CCCC[C@H]1O (stereo partly shown) [Compound 80] |
| 1.87 µM | 76.4 µM |  | N=c1c2c(-c3ccccc3)c(-c3ccccc3)n(CC3CC3)c2ncn1CCCO [Compound 81] |
| 2.35 µM | 30.4 µM |  | N=c1c2c(-c3ccccc3)cn(Cc3ccccc3)c2ncn1C1CCN(Cc2ccccc2)CC1 [Compound 82] |
| 2.96 µM | 24.1 µM |  | C[C@H]([C@@H](O)c1ccccc1)n1cnc2c(c(-c3ccccc3)c(-c3ccccc3)n2Cc2ccccc2)c1=N [Compound 83] |
| 2.96 µM | 24.1 µM |  | N=c1c2c(-c3ccccc3)c(-c3ccccc3)n(Cc3ccc(OC(F)(F)F)cc3)c2ncn1[C@H]1CC[C@@H](O)CC1 [Compound 84] |
| 2.96 µM | 24.1 µM |  | N=c1c2c(-c3ccccc3)c(-c3ccccc3)n(Cc3ccccc3)c2ncn1CC1CCOC1 (stereo not shown) [Compound 85] |
| 3.72 µM | 24.1 µM |  | N=c1c2c(-c3ccccc3)c(-c3ccccc3)n(CC3CCCCC3)c2ncn1[C@H]1CC[C@@H](O)CC1 [Compound 86] |
| 4.69 µM | 60.7 µM |  | N=c1c2c(-c3ccccc3)c(-c3ccccc3)n(CCc3ccccc3)c2ncn1CC1CCOC1 (stereo not shown) [Compound 87] |
| 4.69 µM | 30.4 µM |  | N=c1c2c(-c3ccccc3)c(-c3ccccc3)n(Cc3ccccc3)c2ncn1CC1CCOCC1 [Compound 88] |
| 5.9 µM | 24.1 µM |  | N=c1c2c(-c3ccc4c(c3)OCO4)c(-c3ccc4c(c3)OCO4)n(Cc3ccccc3)c2ncn1C1CCOCC1 [Compound 89] |

— patent publication US10301314B2, “Compounds and methods for the prevention and treatment of tumor metastasis and tumorigenesis” (The United States of America, as represented by the …, priority 2011, dated 2019)
